Measured values reported in patent US4442093A, “Method for administering 24,25-dihydroxycholecalciferol to persons suffering from hypercalcemia” (Kureha Kagaku Kogyo Kabushiki Kaisha, priority 1981, dated 1984).

Tests used:
calcium level in serum = experiment: Prevention of hypercalcemia in rats administered with 1-α-(OH)-D3 (Example 4); assay type: in vivo, male Wistar rats; conditions: 100 µg/kg oral together with 1-α-(OH)-D3 10 µg/kg i.p.
Excerpt: In the present example, it is shown that 24R,25-(OH)2 -D3 has a function of preventing the occurrence of hypercalcemia on rats administered with 1-α-hydroxycholecalciferol (hereinafter referred to as 1-α-(OH)-D3).
Six subgroups of male Wistar rats of 130±30 g of body weight were subjected to the test while dividing the rats into 3 groups, each group consisting of 2 subgroups and each subgroup consisting of 5 animals. To the rats of the first group, after fasting for a night, an ethanolic solution of 1-α-(OH)-D3 was intraperitoneally administered at a dose rate of 10 micrograms of 1-α-(OH)-D3 /kg body weight. To the rats of the second group, a solution of 24R,25-(OH)2 -D3 in the triglyceride ester used in Example 1 was orally administered at a dose rate of 100 micrograms/kg body weight simultaneously with the same administration of 1-α-(OH)-D3 as in the rats of the first group.
The third group of the rats was used for control only with the oral administration of the triglyceride ester used in Example 1.

gastric ulcer = experiment: Prevention of gastric ulcer due to pyloric ligation (Example 9); assay type: in vivo, male Wistar rats; conditions: 200 µg/kg i.p. once after pyloric ligation, 15 h
Method: Twenty male Wistar rats of average body weight of 250 g were divided equally into two groups, and used in the following test:
After 36 hour fasting, all the rats were subjected to pyloric ligation, and the rats of the first group were administered with 2 ml/kg of Panacete®810 (triglyceride ester of C8 and C10 -fatty acid, made by Nippon Oil & Fats Co., Ltd.) containing 0.2% by weight of ethanol intraperitoneally once just after ligation. The rats of the second group were administered with 24R,25-(OH)2 -D3 dissolved in Panacete®810 containing 0.2% by weight of ethanol intraperitoneally at a dose rate of 200 micrograms/kg body weight once just after ligation. After 15 hours of administration, all the rats were subjected to gastrectomy, and the presence or absence of the gastroparietal ulcer was examined on all the resected stomach.
As a result, the occurrence of gastric ulcer was found on 9 rats of 10 rats of the first group, and on 2 rats of 10 rats of the second group.
In a similar test, 24S,25-(OH)2 -D3 was used instead of 24R,25-(OH)2 -D3 to examine its effect in preventing the occurrence of gastric ulcer due to pyloric ligation. As a result, the occurrence of gastric ulcer was recognized on 3 rats of 10 rats of the group similarly treated to those of the second group.

[1] = test system: inorganic phosphate in serum; experiment: Serum inorganic phosphate in chronic renal failure patients under hemodialysis (Example 21); assay type: in vivo, human
Method: Eight patients suffering from chronic renal failure under the treatment of hemodialysis two times a week while using a dialysate containing 9 to 10 mg/dl of calcium component were further treated by oral administration of 24R,25-(OH)2 -D3 in a form of the soft capsule composition obtained in Example 6 at a daily dose of 2 to 10 micrograms for 6 weeks, and the concentration of inorganic phosphate in the serum of each patient before the commencement of the administration and that after completion of the administration were determined by Molybdenum Blue method.

blood sugar = experiment: Blood sugar in streptozotocin rats (Example 22); assay type: in vivo, male Wistar rats; conditions: 10 µg/kg/day p.o., 4 weeks, streptozotocin i.p.
Method: Among the male Wistar rats in 6th week after birth to which 60 mg of streptozotocin/kg body weight was intraperitoneally administered, those in which positive urine sugar was confirmed after one week of the administration, reduction of both urine sugar and blood sugar was shown by the administration of regular insulin and a state of hyper urine sugar and hyper blood sugar was confirmed after a few days of the administration of regular insulin. The confirmed rats were used as the model animals of glycosuria in the following tests. As control, the male Wistar rats intraperitoneally administered with aqueous physiological saline solution instead of streptozotocin were used. These rats were fed with an ordinary solid diet (CE-2, prepared by Nippon Crea Co., Ltd.)
The model animals were divided into two groups each consisting of 12 animals, and to the rats of the first group (according to the present invention), 24R,25-(OH)2 -D3 was forcibly administered p.o. in a state of solution in MCT (triglyceride of C8 and C10 -fatty acid) containing 0.2% by weight of ethanol once a day, 5 to 6 times a week for continuous 4 weeks at a daily dose rate of 10 micrograms/kg body weight. To the rats of the second group, only the same amount of MCT containing 0.2% by weight of ethanol as above was forcibly p.o. administered in the same manner as in the first group. […]

[2] = test system: LICR-LON-HMy 2 cells derived from human myeloma; experiment: Inhibition of proliferation of LICR-LON-HMy 2 cells (Example 25); assay type: cell-based; conditions: 3 days
Method: In a similar manner to Example 24, in vitro proliferated strain of LICR-LON-HMy 2 cells derived from human myeloma were cultured in each one of the same culture mediums as those used in Example 24. After culturing for 3 days, the cultured medium was stained with tripan blue and observed under a microscope to count the number of living cells, the results being shown in Table 19.
In Table 19, the inhibition rate is based on the number of cells in the culture medium added specifically with dimethylsulfoxide as in Example 24.

In the case of `C=C1CC[C@H](O)C/C1=C/C=C1\CCC[C@]2(C)[C@@H]([C@H](C)CC[C@@H](O)C(C)(C)O)CC[C@@H]12` [24R,25-(OH)2 -D3], the “Calcium level in serum” value (calcium level in serum; after 10 hours) is reported as 11.5 ± 0.5 mg/dL, the “Calcium level in serum” value (calcium level in serum; after 18 hours) is reported as 10.6 ± 0.4 mg/dL and the “occurrence of gastric ulcer” value (gastric ulcer) is reported as 2 rats of 10 rats. For the same compound, the “metastatic calcification (roentgenographic examination)” value ([1]; all patients, after completion of the administration) was “metastatic calcification was not recognized”, the “Concentration of inorganic phosphorus after administration, average” value ([1]; average of 8 patients, 2 to 10 µg/day, 6 weeks) was 4.36 ± 0.76 mg/dL and the “Concentration of inorganic phosphorus before administration, average” value ([1]; average of 8 patients, baseline) was 6.63 ± 0.77 mg/dL. The “osteomalacia (bone biopsy)” value ([1]; one patient, after completion of the administration) was “improvement of osteomalacia was confirmed”, the “Concentration of inorganic phosphorus after administration” value ([1]; patient 1 (person fifteen), 8 µg/day, 6 weeks) was 4.9 mg/dL and the “Concentration of inorganic phosphorus before administration” value ([1]; patient 1 (person fifteen), baseline) was 7.2 mg/dL. The “Concentration of inorganic phosphorus after administration” value ([1]; patient 2 (person one), 6 µg/day, 6 weeks) was 4.7 mg/dL, the “Concentration of inorganic phosphorus before administration” value ([1]; patient 2 (person one), baseline) was 6.7 mg/dL and the “Concentration of inorganic phosphorus after administration” value ([1]; patient 3 (person five), 10 µg/day, 6 weeks) was 5.2 mg/dL. For the same compound, the “Concentration of inorganic phosphorus before administration” value ([1]; patient 3 (person five), baseline) was 8.0 mg/dL, the “Concentration of inorganic phosphorus after administration” value ([1]; patient 4 (person nine), 4 µg/day, 6 weeks) was 4.2 mg/dL and the “Concentration of inorganic phosphorus before administration” value ([1]; patient 4 (person nine), baseline) was 5.8 mg/dL. For the same compound, the “Concentration of inorganic phosphorus after administration” value ([1]; patient 5 (person eleven), 8 µg/day, 6 weeks) was 5.3 mg/dL, the “Concentration of inorganic phosphorus before administration” value ([1]; patient 5 (person eleven), baseline) was 7.1 mg/dL and the “Concentration of inorganic phosphorus after administration” value ([1]; patient 6 (person eighteen), 6 µg/day, 6 weeks) was 3.5 mg/dL. The “Concentration of inorganic phosphorus before administration” value ([1]; patient 6 (person eighteen), baseline) was 6.3 mg/dL, the “Concentration of inorganic phosphorus after administration” value ([1]; patient 7 (person eight), 2 µg/day, 6 weeks) was 3.5 mg/dL and the “Concentration of inorganic phosphorus before administration” value ([1]; patient 7 (person eight), baseline) was 5.8 mg/dL. For the same compound, the “Concentration of inorganic phosphorus after administration” value ([1]; patient 8 (person thirteen), 6 µg/day, 6 weeks) was 3.6 mg/dL, the “Concentration of inorganic phosphorus before administration” value ([1]; patient 8 (person thirteen), baseline) was 6.1 mg/dL and the “inorganic phosphate level in serum” value ([1]; patient of chronic renal failure given hemodialysis) was “significant reduction of the inorganic phosphate level in their serum to the normal level”. For the same compound, the Blood sugar (blood sugar) was 208 ± 42 mg/dL, the “Number of myeloma cells after culture” value ([2]; 1 microgram/ml) was 8.0 ×10^5 cells/ml and the “Number of myeloma cells after culture” value ([2]; 10 micrograms/ml) was 0.4 ×10^5 cells/ml. It also gave an inhibition at 1 µg/mL ([2]; Homo sapiens, 72 h, 1 microgram/ml, vs dimethylsulfoxide, read-out: Inhibition Rate of the myeloma cells) of 12% and an inhibition at 10 µg/mL ([2]; Homo sapiens, 72 h, 10 micrograms/ml, vs dimethylsulfoxide, read-out: Inhibition Rate of the myeloma cells) of 96%.
